# Entries after “also recorded” stand apart in the source; their conditions may differ.
# Legend:
# SCD-Selp−/− mice [1] = test: qFILM assessment of P-selectin-independent pulmonary vaso-occlusion in SCD-Selp−/− mice IV administered oxy-Hb; format: in vivo, mouse; conditions: IV 10 μmole/kg oxy-Hb with 10 mg/kg inhibitor vs oxy-Hb alone, 10 mg/kg
# Excerpt: Quantitative fluorescence intravital lung microscopy (qFILM) was used to assess the absence or presence of platelet-neutrophil aggregate mediated pulmonary vaso-occlusion. Pulmonary microcirculation (pseudo-colored purple), neutrophils (red) and platelets (pseudo-colored green) were labeled in vivo by IV administration of FITC dextran, AF546-anti-Ly6G Ab and V450-anti-CD49b Ab, respectively. […] White arrows denote the direction of blood flow within the pulmonary arterioles. Alveoli are marked with asterisks. Scale bars 20 μm. The diameter of pulmonary arteriole in B-E is ˜22 μm, 32 μm, 31.5 μm, and 31 μm, respectively. […] Refer Online Data Supplement for details. […] The data for mice with SCD IV administered 10 oxy-Hb (n=5 mice; 75 FOVs) are included as black bars in FIGS. 1N and 1O for relative comparison. qFILM FOV size ˜65 536 μm^2. Data represent mean ±SE and are compared using Student t test. *P<0.05 (FIG. 1P) Schematic showing the main findings of the study. The sterile inflammatory milieu (DAMPs, IFN-I signaling, and ROS) in SCD promotes caspase-4 (humans) or caspase-11 (mouse)-dependent cleavage of neutrophil GSDMD into the active form GSDMD-NT, leading to the shedding of NETs in the liver microcirculation. Once shed, these NETs are carried by the blood as cNETs to the lung, where they promote neutrophil-platelet aggregation in the pulmonary arterioles, leading to PVO and lung injury (acute chest syndrome).
# SCD-Selp^−/− mice were IV administered 10 μmole/kg oxy-Hb (10 oxy-Hb) without or with 10 mg/kg GSDMD inhibitor (Disulfiram). Quantitative fluorescence intravital lung microscopy (qFILM) was used to assess the absence or presence of pulmonary vasoocclusion using the same experimental scheme described in FIG. 1A. Pulmonary vasoocclusions (PVOs) were compared between treatment groups using following two parameters: Number of PVOs per Field of View (#PVOs/FOV) and number of large PVOs (with area>1000 μm^2) per FOV. […] The data for SCD mice IV administered 10 oxy-Hb (n=5 mice; 75 FOVs) is included as black bars in FIGS. 4A and 4B for relative comparison. FOV size˜65,536 μm^2. […]
# (§1) (FIG. 5A) Experimental scheme: SCD or SCD-Selp^−/− mice were IV administered 10 μmole/kg oxy-Hb (10 oxy-Hb) without or with 10 mg/kg GSDMD inhibitors LDC75591 or Disulfiram. In FIGS. 5C-5D, venous blood was processed to generate PPP and cNETs detected in PPP using Imaging Flow Cytometry. Imaging Flow Cytometry data was quantified to estimate concentration of cNETs (#cNETs/μl of plasma). In FIGS. 5B, and 5E-5F, quantitative fluorescence intravital lung microscopy (qFILM) was used to detect arrival of circulating NETs (cNETs) within the lung microcirculation. Number of cNETs entering per FOV over a 1-minute duration (#cNETs/FOV/min) were quantified. […]
# SCD-Selp−/− mice [2] = test: cNETs in platelet-poor plasma by Imaging Flow Cytometry, SCD-Selp−/− mice; format: in vivo, mouse; conditions: IV 10 μmole/kg oxy-Hb with 10 mg/kg inhibitor vs oxy-Hb alone
# Description: as §1, with “quantified. In FIGS. 5G-5J, qFILM was used to assess the absence or presence of pulmonary vaso-occlusion using the experimental strategy described in FIG. 1A. Pulmonary vaso-occlusions (PVOs) were compared between treatment groups using following two parameters: Number of PVOs per Field of View (#PVOs/FOV) and number of large PVOs (with area>1000 μm^2) per FOV. (FIG. 5B) #cNETs/FOV/min in SCD mice IV administered 10 oxy-Hb were not different from SCD-Selp^−/− mice IV administered 10 oxy-Hb. SCD IV Oxy-Hb (n=4 mice; 44 FOVs). SCD-Selp^−/− IV oxy-Hb (n=5 mice; 71 FOVs). (FIG. 5C) Plasma concentration of cNETs was not different between SCD and SCD-Selp^−/− mice (n=4 mice per group) IV administered 10 oxy-Hb.” for “quantified.”
structure (smiles),measurement,setting,value
COc1ccccc1-c1cc2n(n1)Cc1ccc(NC(C)=O)cc1OC2 [LDC7559],Number of PVOs per Field of View (#PVOs/FOV),SCD-Selp−/− mice [1],significantly reduced; also recorded: threefold
same,number of large PVOs (with area>1000 μm^2) per FOV,SCD-Selp−/− mice [1],absent; also recorded: absence
same,Plasma concentration of cNETs (#cNETs/μl of plasma),SCD-Selp−/− mice [2],significantly less

# — patent US20240358721A1, “GASDERMIN-D INHIBITORS AND USES THEREOF FOR TREATING PULMONARY VASO-OCCLUSION” (UNIVERSITY OF PITTSBURGH-OF THE COMMONWEALTH SYSTEM OF …, priority 2021, published 2024)
